Common to all, as to format: cell-based
The target in one experiment is T1, human TLR7 (Homo sapiens, UniProt Q9NYK1).
T1 construct: host or cells: HEK-Blue cells
T1 sequence (Q9NYK1 27-1049): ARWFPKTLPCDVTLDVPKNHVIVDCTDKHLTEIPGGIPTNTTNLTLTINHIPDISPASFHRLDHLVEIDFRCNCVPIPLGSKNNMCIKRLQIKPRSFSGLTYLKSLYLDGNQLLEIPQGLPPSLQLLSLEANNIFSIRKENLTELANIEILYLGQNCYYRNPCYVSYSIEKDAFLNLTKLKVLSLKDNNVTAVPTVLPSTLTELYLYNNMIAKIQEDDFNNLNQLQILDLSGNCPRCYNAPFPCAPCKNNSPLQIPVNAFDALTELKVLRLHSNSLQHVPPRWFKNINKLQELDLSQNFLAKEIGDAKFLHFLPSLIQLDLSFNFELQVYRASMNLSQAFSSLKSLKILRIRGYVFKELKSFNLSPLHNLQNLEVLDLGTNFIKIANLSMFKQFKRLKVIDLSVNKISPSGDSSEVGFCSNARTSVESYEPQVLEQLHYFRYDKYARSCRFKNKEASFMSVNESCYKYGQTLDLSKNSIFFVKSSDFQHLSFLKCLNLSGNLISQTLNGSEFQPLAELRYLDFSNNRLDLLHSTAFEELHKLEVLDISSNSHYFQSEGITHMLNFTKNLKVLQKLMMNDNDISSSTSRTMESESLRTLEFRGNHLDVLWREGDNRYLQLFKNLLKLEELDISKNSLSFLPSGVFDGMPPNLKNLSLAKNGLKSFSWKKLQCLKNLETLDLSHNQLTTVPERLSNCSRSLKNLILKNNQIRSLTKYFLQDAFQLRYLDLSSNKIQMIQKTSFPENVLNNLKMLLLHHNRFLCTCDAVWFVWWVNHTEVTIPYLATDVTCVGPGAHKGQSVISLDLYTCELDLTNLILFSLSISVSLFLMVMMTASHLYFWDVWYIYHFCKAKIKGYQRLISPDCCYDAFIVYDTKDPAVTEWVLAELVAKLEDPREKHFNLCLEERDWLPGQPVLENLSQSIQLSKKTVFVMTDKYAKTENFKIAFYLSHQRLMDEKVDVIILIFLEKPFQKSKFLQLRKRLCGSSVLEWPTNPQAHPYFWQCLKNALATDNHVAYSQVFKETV
Put plainly: TLR7 inhibition reporter assay (HEK-Blue SEAP reporter). As to conditions: HEK-Blue cells overexpressing human TLR7; gardiquimod 7.5 μM; 22 hour incubation. The method, boiled down:
(§1)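 Human TLR7/8/9 HEK-Blue reporter lines; dose range 0.05 nM–50 μM; 30 min RT preincubation; stimulus gardiquimod 7.5 μM / R848 15.9 μM / ODN2006 5 nM respectively; 22 h, 37 °C; SEAP detected colorimetrically.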
Background: In a reporter assay the amount or activity of a reporter protein is the signal.

The next experiment has as its target T2, human TLR9 (Homo sapiens, UniProt Q9NR96).
T2 construct: host or cells: HEK-Blue cells
T2 sequence (Q9NR96 26-1032): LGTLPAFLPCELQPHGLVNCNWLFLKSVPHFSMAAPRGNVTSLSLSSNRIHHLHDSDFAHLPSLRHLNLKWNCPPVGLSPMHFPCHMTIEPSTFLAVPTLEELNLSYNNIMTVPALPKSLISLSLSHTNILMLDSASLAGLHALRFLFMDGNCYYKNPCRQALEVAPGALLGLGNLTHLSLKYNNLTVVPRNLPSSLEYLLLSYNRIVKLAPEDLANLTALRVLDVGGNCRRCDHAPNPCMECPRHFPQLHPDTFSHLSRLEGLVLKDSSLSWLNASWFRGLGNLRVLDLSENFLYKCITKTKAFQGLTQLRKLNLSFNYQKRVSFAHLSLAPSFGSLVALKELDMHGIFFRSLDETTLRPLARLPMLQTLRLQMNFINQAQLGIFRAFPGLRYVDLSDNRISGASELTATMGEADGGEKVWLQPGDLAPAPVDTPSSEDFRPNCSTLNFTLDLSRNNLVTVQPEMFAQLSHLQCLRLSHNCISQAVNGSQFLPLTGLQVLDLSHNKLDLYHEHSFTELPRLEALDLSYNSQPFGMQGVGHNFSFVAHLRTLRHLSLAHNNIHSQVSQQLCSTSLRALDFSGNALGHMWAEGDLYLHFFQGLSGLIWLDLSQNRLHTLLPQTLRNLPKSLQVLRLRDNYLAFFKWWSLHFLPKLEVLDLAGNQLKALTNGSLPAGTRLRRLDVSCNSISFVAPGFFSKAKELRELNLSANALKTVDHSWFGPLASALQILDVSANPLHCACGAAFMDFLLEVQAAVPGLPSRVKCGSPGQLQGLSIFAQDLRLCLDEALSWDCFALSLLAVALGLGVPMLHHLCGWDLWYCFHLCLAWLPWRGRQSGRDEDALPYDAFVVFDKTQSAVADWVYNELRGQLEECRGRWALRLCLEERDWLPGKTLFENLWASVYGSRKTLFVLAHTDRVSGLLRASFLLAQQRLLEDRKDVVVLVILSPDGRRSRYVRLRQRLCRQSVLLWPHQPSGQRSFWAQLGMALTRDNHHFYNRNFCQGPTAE
Put plainly: TLR9 inhibition reporter assay (HEK-Blue SEAP reporter). As to conditions: HEK-Blue cells overexpressing human TLR9; ODN2006 5 nM; 22 hour incubation. The method, boiled down: as §1

A further experiment concerns the target T3, human TLR8 (Homo sapiens, UniProt Q9NR97).
T3 construct: host or cells: HEK-Blue cells
T3 sequence (Q9NR97 27-1041): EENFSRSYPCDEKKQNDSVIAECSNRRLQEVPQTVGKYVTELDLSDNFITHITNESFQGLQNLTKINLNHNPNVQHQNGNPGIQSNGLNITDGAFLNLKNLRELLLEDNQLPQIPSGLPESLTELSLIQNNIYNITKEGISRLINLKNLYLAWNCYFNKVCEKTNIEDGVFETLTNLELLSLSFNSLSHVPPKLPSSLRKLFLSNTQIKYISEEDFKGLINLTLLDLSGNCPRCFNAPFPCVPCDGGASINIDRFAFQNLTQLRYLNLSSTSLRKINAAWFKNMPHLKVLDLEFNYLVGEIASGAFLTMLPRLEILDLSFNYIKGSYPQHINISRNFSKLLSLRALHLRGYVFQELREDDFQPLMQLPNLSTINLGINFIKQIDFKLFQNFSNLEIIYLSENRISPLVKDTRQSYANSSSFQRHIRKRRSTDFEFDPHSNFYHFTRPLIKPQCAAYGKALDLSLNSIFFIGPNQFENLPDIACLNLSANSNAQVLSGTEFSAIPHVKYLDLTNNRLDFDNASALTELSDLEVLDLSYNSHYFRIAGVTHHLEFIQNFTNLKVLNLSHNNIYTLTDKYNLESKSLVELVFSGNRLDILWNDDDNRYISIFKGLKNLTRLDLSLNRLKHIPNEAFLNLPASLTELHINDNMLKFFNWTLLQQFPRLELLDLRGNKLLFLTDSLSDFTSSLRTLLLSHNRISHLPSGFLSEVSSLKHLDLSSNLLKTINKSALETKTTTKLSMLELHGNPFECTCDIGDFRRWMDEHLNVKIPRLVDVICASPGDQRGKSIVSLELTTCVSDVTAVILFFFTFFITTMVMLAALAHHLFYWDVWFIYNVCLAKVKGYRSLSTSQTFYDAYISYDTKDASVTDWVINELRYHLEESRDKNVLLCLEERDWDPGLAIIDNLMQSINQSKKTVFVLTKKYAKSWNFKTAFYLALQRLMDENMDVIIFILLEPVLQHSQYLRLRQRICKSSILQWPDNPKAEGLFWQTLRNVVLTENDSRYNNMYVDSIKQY
Put plainly: TLR8 inhibition reporter assay (HEK-Blue SEAP reporter). The following applies: HEK-Blue cells overexpressing human TLR8; R848 15.9 μM; 22 hour incubation. The method, boiled down:
as §1

pIC50: −log10 of the molar value.

Regarding `COc1ccc(-c2[nH]c3ccc(NC4CC(C)(C)N(C)C(C)(C)C4)cc3c2C(C)C)cc1OC` [Example 103, 2-(3,4-dimethoxyphenyl)-3-isopropyl-N-(1,2,2,6,6-pentamethylpiperidin-4-yl)-1H-indol-5-amine], the pIC50 was 5.95 against human TLR7, 5.57 on human TLR9 and 8.09 against human TLR8.
In the case of `CCc1c(-c2ccnc(C)c2)[nH]c2ccc(N3CCN(C4CCN(CC)CC4)CC3)cc12` [Example 142, 3-ethyl-5-(4-(1-ethylpiperidin-4-yl)piperazin-1-yl)-2-(2-methylpyridin-4-yl)-1H-indole], the negative logarithm of the IC50 (pIC50) on human TLR7 is 5.44; at human TLR9, 6.65; on human TLR8, 5.10.
Regarding `COc1ccc(-c2[nH]c3ccc(N4CCC(CCN5CCCC5)CC4)cc3c2C(C)C)cc1OC` [Example 115, 2-(3,4-dimethoxyphenyl)-3-isopropyl-5-(4-(2-(pyrrolidin-1-yl)ethyl)piperidin-1-yl)-1H-indole], the pIC50 on human TLR7 was 7.51; on human TLR9 it was 6.21; against human TLR8, 7.21.
The matching figures for `CNCCNC1CCN(c2ccc3[nH]c(-c4ccnc(C)c4)c(C(C)C)c3c2)C1=O` (stereo not drawn) [Example 1, 1-(3-isopropyl-2-(2-methylpyridin-4-yl)-1H-indol-5-yl)-3-((2-(methylamino)ethyl)amino)pyrrolidin-2-one]: 6.72, 6.31 and 7.80.
In the same order, the values of `CC(C)c1c(-c2ccnc3[nH]ncc23)[nH]c2ccc(N3CCN(C4CCN(C(C)C)CC4)CC3)cc12` [Example 168, 4-(3-isopropyl-5-(4-(1-isopropylpiperidin-4-yl)piperazin-1-yl)-1H-indol-2-yl)-1H-pyrazolo[3,4-b]pyridine] are below 4.30, 6.59 and 4.32.
The matching figures for `COc1ccc(-c2[nH]c3ccc(NC4CCC(N5CCN(C6CCN(C)CC6)CC5)CC4)cc3c2C(C)C)cc1OC` (stereo not drawn) [Example 61, 2-(3,4-dimethoxyphenyl)-3-isopropyl-N-(4-(4-(1-methylpiperidin-4-yl)piperazin-1-yl)cyclohexyl)-1H-indol-5-amine]: 6.84, 6.26 and 6.76.
In the case of `CCc1c(-c2ccnc(C)c2)[nH]c2ccc(N3CCN(C4CCN(C)CC4)CC3)cc12` [Example 139, 3-ethyl-5-(4-(1-methylpiperidin-4-yl)piperazin-1-yl)-2-(2-methylpyridin-4-yl)-1H-indole], the pIC50 is 5.56 at human TLR7, 6.80 against human TLR9 and 5.97 against human TLR8.
Turning to `COc1ccc(-c2[nH]c3ccc(N4CCC(N5CCN(C(C)C)CC5)CC4)cc3c2C(C)C)cc1OC` [Example 85, 2-(3,4-dimethoxyphenyl)-3-isopropyl-5-(4-(4-isopropylpiperazin-1-yl)piperidin-1-yl)-1H-indole], the pIC50 at human TLR7 was 7.64; against human TLR9, 6.20; against human TLR8, 7.80.
The matching figures for `CCc1c(-c2ccnc(OC)c2)[nH]c2ccc(N3CCN(C4CCN(C(C)C)CC4)CC3)cc12` [Example 153, 3-ethyl-5-(4-(1-isopropylpiperidin-4-yl)piperazin-1-yl)-2-(2-methoxypyridin-4-yl)-1H-indole]: 7.08, 6.12 and 7.96.
Take `COc1ccc(-c2[nH]c3ccc(N4CCC(C(C)(C)O)CC4)cc3c2C(C)C)cc1OC` [Example 110, 2-(1-(2-(3,4-dimethoxyphenyl)-3-isopropyl-1H-indol-5-yl)piperidin-4-yl)propan-2-ol]: the results for the pIC50 on human TLR7, at human TLR9 and on human TLR8 were 6.71, 4.53 and 6.48, respectively.
As for `CCN1CCCN(C2CCN(c3ccc4[nH]c(-c5ccc(OC)c(OC)c5)c(C(C)C)c4c3)CC2)CC1` [Example 84, 2-(3,4-dimethoxyphenyl)-5-(4-(4-ethyl-1,4-diazepan-1-yl)piperidin-1-yl)-3-isopropyl-1H-indole], the pIC50 against human TLR7 is 7.80; against human TLR9 it was 6.00; against human TLR8 it was 8.33.
Regarding `COc1ccc(-c2[nH]c3ccc(N4CCC(N5CCN(CC(C)C)CC5)CC4)cc3c2C(C)C)cc1OC` [Example 91, 2-(3,4-dimethoxyphenyl)-5-(4-(4-isobutylpiperazin-1-yl)piperidin-1-yl)-3-isopropyl-1H-indole], the negative logarithm of the IC50 (pIC50) on human TLR7 was 6.94; against human TLR9 it was 5.71; on human TLR8, 7.04.
In the same order, the values of `COc1ccc(-c2[nH]c3ccc(N4CCC(NC5CCN(C)CC5)CC4)cc3c2C(C)C)cc1OC` [Example 79, 1-(2-(3,4-dimethoxyphenyl)-3-isopropyl-1H-indol-5-yl)-N-(1-methylpiperidin-4-yl)piperidin-4-amine] are 8.01, 6.19 and 8.33.

Usually pIC50 stands for −log10 of the IC50, conventionally taken in molar units. Read a high pIC50 as a small IC50.
